Data taken from PubChem BioAssay AID330 (DTP/NCI, 2004).
Where “and” joins values, the source holds several entries; their conditions need not be identical. Equal values may be shown once. Toxic doses and inconclusive results are not listed. How the source made its calls: active means survival T/C of 150% or more; inactive means T/C below 125% in these data.

System: P388 leukemia ip, CD2F1 mice, survival T/C
Assay: NCI In Vivo Anticancer Drug Screen. Data for tumor model P388 Leukemia (intraperitoneal) in CD2F1 (CDF1) mice
Details: endpoint: median survival time, higher = longer survival
Outline: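 Mice carrying the transplanted tumor received test compound or vehicle. Survival was recorded in each group, and the value is the treated-group measurement divided by that of the vehicle-treated control group.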

[1] = dose: 60.0 mg/kg/injection, schedule: Q01DX005 (ip), vehicle: saline with Tween-80
[2] = dose: 120.0 mg/kg/injection, schedule: Q01DX005 (ip), vehicle: saline with Tween-80
[3] = dose: 50.0 mg/kg/injection, schedule: Q01DX009 (ip), vehicle: saline
[4] = dose: 100.0 mg/kg/injection, schedule: Q01DX009 (ip), vehicle: saline
[5] = dose: 200.0 mg/kg/injection, schedule: Q01DX009 (ip), vehicle: saline
[6] = dose: 50.0 mg/kg/injection, schedule: Q01DX005 (ip), vehicle: Klucel (hydroxypropylcellulose) (HPC)
[7] = dose: 100.0 mg/kg/injection, schedule: Q04DX002 (ip), vehicle: saline with Tween-80
[8] = dose: 200.0 mg/kg/injection, schedule: Q04DX002 (ip), vehicle: saline with Tween-80
[9] = dose: 100.0 mg/kg/injection, schedule: Q04DX003 (ip), vehicle: saline with Tween-80
[10] = dose: 200.0 mg/kg/injection, schedule: Q04DX003 (ip), vehicle: saline with Tween-80
[11] = dose: 400.0 mg/kg/injection, schedule: Q04DX003 (ip), vehicle: saline with Tween-80
[12] = dose: 200.0 mg/kg/injection, schedule: Q01DX005 (ip), vehicle: saline with Tween-80

Measured: T/C

CCc1ccccc1NC(=O)C(C#N)C1=C(Cl)C(=O)c2ccccc2C1=O (centres undefined)
inactive: [1] 113 % of control | [2] 106 % of control

[Br][Rh][Br].[NH-]c1nc2ccc(Br)cc2s1.[NH-]c1nc2ccc(Br)cc2s1.[NH-]c1nc2ccc(Br)cc2s1.[NH-]c1nc2ccc(Br)cc2s1
inactive: [3] 100 % of control | [4] 98 % of control | [5] 100 % of control

Oc1c(-c2ccccc2)cc(-c2ccc(Br)cc2)c(-c2ccc(Br)cc2)c1-c1ccccc1
inactive: dose: 12.5 mg/kg/injection, schedule: Q01DX009 (ip), vehicle: saline with Tween-80 107 % of control | dose: 25.0 mg/kg/injection, schedule: Q01DX009 (ip), vehicle: saline with Tween-80 95 % of control | dose: 50.0 mg/kg/injection, schedule: Q01DX009 (ip), vehicle: saline with Tween-80 98 % of control | dose: 100.0 mg/kg/injection, schedule: Q01DX009 (ip), vehicle: saline with Tween-80 105 % of control | dose: 200.0 mg/kg/injection, schedule: Q01DX009 (ip), vehicle: saline with Tween-80 96 % of control

CCCCCC(CSCC)C(=O)/C=C/c1ccc(Cl)c(Cl)c1 (centres undefined)
inactive: dose: 12.5 mg/kg/injection, schedule: Q01DX009 (ip), vehicle: distilled water + Tween-80 101 % of control | dose: 25.0 mg/kg/injection, schedule: Q01DX009 (ip), vehicle: distilled water + Tween-80 105 % of control | dose: 50.0 mg/kg/injection, schedule: Q01DX009 (ip), vehicle: distilled water + Tween-80 103 % of control and 104 % of control | dose: 100.0 mg/kg/injection, schedule: Q01DX009 (ip), vehicle: distilled water + Tween-80 105 % of control and 109 % of control | dose: 200.0 mg/kg/injection, schedule: Q01DX009 (ip), vehicle: distilled water + Tween-80 120 % of control and 124 % of control | dose: 400.0 mg/kg/injection, schedule: Q01DX009 (ip), vehicle: distilled water + Tween-80 119 % of control

COc1cc2c(cc1OC)C(CCN)=NCC2
inactive: dose: 25.0 mg/kg/injection, schedule: Q01DX009 (ip), vehicle: saline sonified 95 % of control | dose: 50.0 mg/kg/injection, schedule: Q01DX009 (ip), vehicle: saline sonified 100 % of control | dose: 100.0 mg/kg/injection, schedule: Q01DX009 (ip), vehicle: saline sonified 100 % of control

COc1ccccc1-n1c(Cc2cccc3ccccc23)nnc1SCC(=O)O
inactive: [6] 100 % of control | dose: 100.0 mg/kg/injection, schedule: Q01DX005 (ip), vehicle: Klucel (hydroxypropylcellulose) (HPC) 100 % of control | dose: 200.0 mg/kg/injection, schedule: Q01DX005 (ip), vehicle: Klucel (hydroxypropylcellulose) (HPC) 100 % of control

c1ccc2cc3cc(N=Nc4ccc5cc6ccccc6cc5c4)ccc3cc2c1
inactive: [7] 108 % of control | [8] 104 % of control | dose: 400.0 mg/kg/injection, schedule: Q04DX002 (ip), vehicle: saline with Tween-80 106 % of control

COc1ccc(N=Cc2c(O)ccc3c2oc2cc(Cl)c(O)c(Cl)c23)cc1
inactive: dose: 60.0 mg/kg/injection, schedule: Q01DX005 (ip), vehicle: Klucel (hydroxypropylcellulose) (HPC) 96 % of control | dose: 120.0 mg/kg/injection, schedule: Q01DX005 (ip), vehicle: Klucel (hydroxypropylcellulose) (HPC) 93 % of control | dose: 240.0 mg/kg/injection, schedule: Q01DX005 (ip), vehicle: Klucel (hydroxypropylcellulose) (HPC) 91 % of control

CC(=O)Nc1ccc(NC(C)=O)c2c1C(=O)c1ccccc1C2=O
inactive: [9] 100 % of control | [10] 100 % of control | [11] 100 % of control

[Se]=P(c1ccccc1)(N1CCCCC1)N1CCCCC1
inactive: dose: 12.5 mg/kg/injection, schedule: Q01DX001 (ip), vehicle: Klucel (hydroxypropylcellulose) (HPC) 106 % of control | dose: 25.0 mg/kg/injection, schedule: Q01DX001 (ip), vehicle: Klucel (hydroxypropylcellulose) (HPC) 101 % of control | dose: 50.0 mg/kg/injection, schedule: Q01DX001 (ip), vehicle: Klucel (hydroxypropylcellulose) (HPC) 93 % of control

O=C(N/C=C/c1ccco1)NC1CCCCCCCCCCC1
inactive: dose: 12.5 mg/kg/injection, schedule: Q01DX005 (ip), vehicle: Klucel (hydroxypropylcellulose) (HPC) 95 % of control | dose: 25.0 mg/kg/injection, schedule: Q01DX005 (ip), vehicle: Klucel (hydroxypropylcellulose) (HPC) 92 % of control | [6] 89 % of control

O=C(NC1CCC(CC2CCC(NC(=O)C34CC5CC(CC(C5)C3)C4)CC2)CC1)C12CC3CC(CC(C3)C1)C2 (centres undefined)
inactive: dose: 0.4 mg/kg/injection, schedule: Q01DX005 (ip), vehicle: saline with Tween-80 97 % of control | dose: 0.8 mg/kg/injection, schedule: Q01DX005 (ip), vehicle: saline with Tween-80 98 % of control | dose: 1.56 mg/kg/injection, schedule: Q01DX005 (ip), vehicle: saline with Tween-80 91 % of control | dose: 1.6 mg/kg/injection, schedule: Q01DX005 (ip), vehicle: saline with Tween-80 97 % of control | dose: 3.2 mg/kg/injection, schedule: Q01DX005 (ip), vehicle: saline with Tween-80 87 % of control | dose: 6.25 mg/kg/injection, schedule: Q01DX005 (ip), vehicle: saline with Tween-80 89 % of control | [12] 86 % of control

CCOC(=O)CC(=O)c1sc(Nc2ccccc2)c(C#N)c1N
inactive: dose: 50.0 mg/kg/injection, schedule: Q01DX005 (ip), vehicle: saline with Tween-80 98 % of control | dose: 100.0 mg/kg/injection, schedule: Q01DX005 (ip), vehicle: saline with Tween-80 90 % of control | [12] 90 % of control

N=[N+]=CC(=O)CC(N)C(=O)O (centres undefined)
inactive: [4] 117 % of control | dose: 100.0 mg/kg/injection, schedule: Q04DX003 (ip), vehicle: saline 92 % of control | dose: 200.0 mg/kg/injection, schedule: Q04DX003 (ip), vehicle: saline 100 % of control | dose: 400.0 mg/kg/injection, schedule: Q04DX003 (ip), vehicle: saline 100 % of control

CCCCCCCC/C=C\CCCCCCCC(=O)O
inactive: dose: 50.0 mg/kg/injection, schedule: Q04DX003 (ip), vehicle: Klucel (hydroxypropylcellulose) (HPC) 104 % of control | dose: 100.0 mg/kg/injection, schedule: Q04DX003 (ip), vehicle: Klucel (hydroxypropylcellulose) (HPC) 103 % of control and 97 % of control | dose: 200.0 mg/kg/injection, schedule: Q04DX003 (ip), vehicle: Klucel (hydroxypropylcellulose) (HPC) 102 % of control and 93 % of control | dose: 400.0 mg/kg/injection, schedule: Q04DX003 (ip), vehicle: Klucel (hydroxypropylcellulose) (HPC) 92 % of control

CN(C)CCC(CCc1ccccc1)OC(=O)c1ccccc1 (centres undefined)
inactive: dose: 25.0 mg/kg/injection, schedule: Q01DX009 (ip), vehicle: saline 102 % of control | [3] 101 % of control | [4] 102 % of control

Nc1nnnn1/N=C/c1ccccc1
inactive: dose: 50.0 mg/kg/injection, schedule: Q04DX002 (ip), vehicle: Klucel (hydroxypropylcellulose) (HPC) 87 % of control | dose: 100.0 mg/kg/injection, schedule: Q04DX002 (ip), vehicle: Klucel (hydroxypropylcellulose) (HPC) 101 % of control | dose: 200.0 mg/kg/injection, schedule: Q04DX002 (ip), vehicle: Klucel (hydroxypropylcellulose) (HPC) 100 % of control

Cn1c(=O)c2cc(O)cnc2n(C)c1=O
inactive: [9] 95 % of control | [10] 91 % of control | [11] 86 % of control

CCN1C(=O)c2ccccc2C1=O
inactive: [3] 101 % of control | [4] 90 % of control | [5] 110 % of control

Cc1ccc(C(=O)n2c(Br)c(/C=N/NC(N)=S)c3ccccc32)cc1
inactive: dose: 100.0 mg/kg/injection, schedule: Q01DX001 (ip), vehicle: Klucel (hydroxypropylcellulose) (HPC) 100 % of control | dose: 200.0 mg/kg/injection, schedule: Q01DX001 (ip), vehicle: Klucel (hydroxypropylcellulose) (HPC) 100 % of control | dose: 400.0 mg/kg/injection, schedule: Q01DX001 (ip), vehicle: Klucel (hydroxypropylcellulose) (HPC) 95 % of control

Cc1ccc2c(c1)C(=O)N(CC[P+](c1ccccc1)(c1ccccc1)c1ccccc1)C2=O
inactive: dose: 0.78 mg/kg/injection, schedule: Q01DX009 (ip), vehicle: water 100 % of control and 113 % of control | dose: 1.56 mg/kg/injection, schedule: Q01DX009 (ip), vehicle: water 117 % of control and 120 % of control | dose: 3.13 mg/kg/injection, schedule: Q01DX009 (ip), vehicle: water 121 % of control | dose: 12.5 mg/kg/injection, schedule: Q01DX009 (ip), vehicle: water 118 % of control

O=c1ccnc[nH]1
inactive: [7] 105 % of control | [8] 93 % of control

O=c1sc2ccccc2n2cccc12
inactive: [1] 92 % of control | [2] 94 % of control | dose: 240.0 mg/kg/injection, schedule: Q01DX005 (ip), vehicle: saline with Tween-80 92 % of control
